# According to PubChem BioAssay (NCI):
#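 How tested: cells in 96-well plates exposed to compound for 48 hours at five concentrations. TGI denotes the concentration required for complete inhibition of growth.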 Where a SMILES comes first, the peptide text is derived from it. [ ]: non-standard residue; d: D form. The star is where a group is joined. Cbz = O=C(OCc1ccccc1)*; Aib = CC(C)(N)C(=O)O; OBn = c1ccc(CO*)cc1
# System: HT29 colon
# Experiment: NCI anticancer screen, dose series, 48 h
row,Compound,TGI
1,Cc1cc(N(C)C)c2ccccc2[n+]1CCCCCCCCCC[n+]1c(C)cc(N(C)C)c2ccccc21,> 35 µM
2,CO/N=C(/C(=O)OC)c1ccccc1COc1ccccc1C(F)(F)F,> 100 µM
3,N#Cc1sc2c(c1OC(=O)c1ccc(C(F)(F)F)cc1)c(=O)n(-c1ccccc1)c(=S)n2-c1ccccc1,82.5 µM
4,CCOC(=O)/C(C(C)=O)=C(\OC(C)=O)c1ccncc1C(=O)O,> 100 µM
5,CCOC(=O)CC/C(=N/Nc1ccc(Cl)cc1[N+](=O)[O-])C(=O)OCC,> 100 µM
6,Nc1ncc2c(n1)-c1ccccc1OC2N1CCCC1 (configuration not stated),> 100 µM
7,COc1cc(O)c2c(=O)c(OC)c(-c3ccc(OC)c(O)c3)oc2c1,> 100 µM
8,O=c1c2c(no[n+]2[O-])c2ccccc2n1-c1ccccc1,15.5 µM
9,CC(NC(=O)C(C)(C)NC(=O)C(CC(=O)OCc1ccccc1)NC(=O)OCc1ccccc1)C(N)=O (configuration not stated) (Cbz-Asp(OBn)-[Aib]-Ala-NH2; configuration not given here),> 100 µM
10,Clc1ccc(C=NC23CC4CC(CC(C4)C2)C3)c(Cl)c1,> 10 µM
11,c1ccc(C(C(=Nc2ccc(Cc3ccc(N=C(C(c4ccccc4)c4ccccc4)N4CC4)cc3)cc2)N2CC2)c2ccccc2)cc1,15.9 µM
12,OCCCc1ccc2c(c1)[C@H](CO)[C@@H](c1ccc(O)cc1)O2,> 100 µM
13,c1ccc(C2=NOC(c3ccccc3)N2C23CC4CC(CC(C4)C2)C3)cc1 (configuration not stated),> 10 µM
14,CCOC(=O)C(NC(=O)CC)(N1CCN(c2cc3c(cc2F)c(=O)c(C(=O)O)cn3C2CC2)CC1)C(F)(F)F (configuration not stated),> 100 µM
15,CC12c3c4ccc(C=O)c3Oc3ccc(C=O)c(c31)Oc1ccc(C=O)c(c12)O4,> 25 µM
16,O=C(CN1C(=O)CC(c2ccccc2)(c2ccccc2)C1=O)N1CCN(CCO)CC1,> 100 µM

row,Compound,TGI
1,O=[N+]([O-])c1cc2oc(CSc3ccccc3)nc2cc1Cl,> 100 µM
2,CC(C)(CO)CNc1nc(N)nc(Cl)c1/C=N/O,> 100 µM
3,COc1ccc2oc(=N)c(C(=O)Nc3ccccc3)cc2c1,> 100 µM
4,O=c1onc2n1-c1cc(Cl)ccc1C(=S)N1CSCC21 (configuration not stated),> 100 µM
5,CN1CC[C@]2(c3cccc(O)c3)CC(=O)/C(=C/c3ccccc3)[C@@H]1C2,7.55 µM
6,O=C(O)C(O)C(O)C(O)C(O)CO (configuration not stated),> 100 µM
7,OC(C#CCN1CCCC1)(c1ccccc1)c1ccccc1Cl (configuration not stated),30.1 µM
8,CCc1n[nH]c(=O)n1-c1ccc2ccccc2c1,> 100 µM
9,CSc1nc2c(c(N(C)C)n1)C(O)n1c(nc3ccccc31)S2 (configuration not stated),> 100 µM
10,O=C1CSC2(CC(/C=C/c3cccs3)=NN2c2cccc(S(=O)(=O)O)c2)N1c1nc2ccccc2s1 (configuration not stated),> 100 µM
11,C[C@@H]1CCC2[C@@H](C)[C@@H](O[C@H]3O[C@@H]4O[C@@]5(C)CCC6[C@H](C)CCC([C@H]3C)[C@]64OO5)O[C@@H]3O[C@@]4(C)CCC1[C@@]23OO4 (some centres not stated),> 25 µM
12,O=C(c1ccccc1)c1ccc2c(c1)NC(=O)c1ccccc1SSc1ccccc1C(=O)N2,> 100 µM
13,COc1ccc(CC(N)=O)cc1OC,> 1250 µM
14,CCOC(=O)CNC(=O)NC12CC3CC(CC(C3)C1)C2,> 550 µM
15,O=C(NCCCl)O/N=C/c1cccnc1,> 100 µM

# System: SK-MEL-28 melanoma
# Experiment: NCI anticancer screen, dose series, 48 h
row,Compound,TGI
1,Cc1cc(N(C)C)c2ccccc2[n+]1CCCCCCCCCC[n+]1c(C)cc(N(C)C)c2ccccc21,3.54 µM
2,CO/N=C(/C(=O)OC)c1ccccc1COc1ccccc1C(F)(F)F,> 100 µM
3,N#Cc1sc2c(c1OC(=O)c1ccc(C(F)(F)F)cc1)c(=O)n(-c1ccccc1)c(=S)n2-c1ccccc1,> 100 µM
4,CCOC(=O)/C(C(C)=O)=C(\OC(C)=O)c1ccncc1C(=O)O,> 100 µM
5,CCOC(=O)CC/C(=N/Nc1ccc(Cl)cc1[N+](=O)[O-])C(=O)OCC,> 100 µM
6,Nc1ncc2c(n1)-c1ccccc1OC2N1CCCC1 (configuration not stated),> 100 µM
7,COc1cc(O)c2c(=O)c(OC)c(-c3ccc(OC)c(O)c3)oc2c1,> 100 µM
8,O=c1c2c(no[n+]2[O-])c2ccccc2n1-c1ccccc1,17 µM
9,CC(NC(=O)C(C)(C)NC(=O)C(CC(=O)OCc1ccccc1)NC(=O)OCc1ccccc1)C(N)=O (configuration not stated) (Cbz-Asp(OBn)-[Aib]-Ala-NH2; configuration not given here),> 100 µM
10,Clc1ccc(C=NC23CC4CC(CC(C4)C2)C3)c(Cl)c1,> 10 µM
11,c1ccc(C(C(=Nc2ccc(Cc3ccc(N=C(C(c4ccccc4)c4ccccc4)N4CC4)cc3)cc2)N2CC2)c2ccccc2)cc1,21.4 µM
12,OCCCc1ccc2c(c1)[C@H](CO)[C@@H](c1ccc(O)cc1)O2,> 100 µM
13,c1ccc(C2=NOC(c3ccccc3)N2C23CC4CC(CC(C4)C2)C3)cc1 (configuration not stated),> 10 µM
14,CCOC(=O)C(NC(=O)CC)(N1CCN(c2cc3c(cc2F)c(=O)c(C(=O)O)cn3C2CC2)CC1)C(F)(F)F (configuration not stated),> 100 µM
15,CC12c3c4ccc(C=O)c3Oc3ccc(C=O)c(c31)Oc1ccc(C=O)c(c12)O4,> 25 µM
16,O=C(CN1C(=O)CC(c2ccccc2)(c2ccccc2)C1=O)N1CCN(CCO)CC1,> 100 µM

row,Compound,TGI
1,O=[N+]([O-])c1cc2oc(CSc3ccccc3)nc2cc1Cl,> 100 µM
2,CC(C)(CO)CNc1nc(N)nc(Cl)c1/C=N/O,> 100 µM
3,COc1ccc2oc(=N)c(C(=O)Nc3ccccc3)cc2c1,> 100 µM
4,O=c1onc2n1-c1cc(Cl)ccc1C(=S)N1CSCC21 (configuration not stated),> 100 µM
5,CN1CC[C@]2(c3cccc(O)c3)CC(=O)/C(=C/c3ccccc3)[C@@H]1C2,13.4 µM
6,O=C(O)C(O)C(O)C(O)C(O)CO (configuration not stated),> 100 µM
7,OC(C#CCN1CCCC1)(c1ccccc1)c1ccccc1Cl (configuration not stated),32.2 µM
8,CCc1n[nH]c(=O)n1-c1ccc2ccccc2c1,> 100 µM
9,CSc1nc2c(c(N(C)C)n1)C(O)n1c(nc3ccccc31)S2 (configuration not stated),> 100 µM
10,O=C1CSC2(CC(/C=C/c3cccs3)=NN2c2cccc(S(=O)(=O)O)c2)N1c1nc2ccccc2s1 (configuration not stated),> 100 µM
11,C[C@@H]1CCC2[C@@H](C)[C@@H](O[C@H]3O[C@@H]4O[C@@]5(C)CCC6[C@H](C)CCC([C@H]3C)[C@]64OO5)O[C@@H]3O[C@@]4(C)CCC1[C@@]23OO4 (some centres not stated),> 25 µM
12,O=C(c1ccccc1)c1ccc2c(c1)NC(=O)c1ccccc1SSc1ccccc1C(=O)N2,> 100 µM
13,COc1ccc(CC(N)=O)cc1OC,> 1250 µM
14,CCOC(=O)CNC(=O)NC12CC3CC(CC(C3)C1)C2,> 539 µM
15,O=C(NCCCl)O/N=C/c1cccnc1,> 100 µM

# System: CCRF-CEM leukemia
# Experiment: NCI anticancer screen, dose series, 48 h
row,Compound,TGI
1,Cc1cc(N(C)C)c2ccccc2[n+]1CCCCCCCCCC[n+]1c(C)cc(N(C)C)c2ccccc21,13.5 µM
2,CO/N=C(/C(=O)OC)c1ccccc1COc1ccccc1C(F)(F)F,> 100 µM
3,N#Cc1sc2c(c1OC(=O)c1ccc(C(F)(F)F)cc1)c(=O)n(-c1ccccc1)c(=S)n2-c1ccccc1,36.7 µM
4,CCOC(=O)/C(C(C)=O)=C(\OC(C)=O)c1ccncc1C(=O)O,> 100 µM
5,CCOC(=O)CC/C(=N/Nc1ccc(Cl)cc1[N+](=O)[O-])C(=O)OCC,> 100 µM
6,Nc1ncc2c(n1)-c1ccccc1OC2N1CCCC1 (configuration not stated),> 100 µM
7,COc1cc(O)c2c(=O)c(OC)c(-c3ccc(OC)c(O)c3)oc2c1,> 100 µM
8,O=c1c2c(no[n+]2[O-])c2ccccc2n1-c1ccccc1,7.21 µM
9,CC(NC(=O)C(C)(C)NC(=O)C(CC(=O)OCc1ccccc1)NC(=O)OCc1ccccc1)C(N)=O (configuration not stated) (Cbz-Asp(OBn)-[Aib]-Ala-NH2; configuration not given here),> 100 µM
10,Clc1ccc(C=NC23CC4CC(CC(C4)C2)C3)c(Cl)c1,> 10 µM
11,c1ccc(C(C(=Nc2ccc(Cc3ccc(N=C(C(c4ccccc4)c4ccccc4)N4CC4)cc3)cc2)N2CC2)c2ccccc2)cc1,49.8 µM
12,OCCCc1ccc2c(c1)[C@H](CO)[C@@H](c1ccc(O)cc1)O2,> 100 µM
13,c1ccc(C2=NOC(c3ccccc3)N2C23CC4CC(CC(C4)C2)C3)cc1 (configuration not stated),> 10 µM
14,CCOC(=O)C(NC(=O)CC)(N1CCN(c2cc3c(cc2F)c(=O)c(C(=O)O)cn3C2CC2)CC1)C(F)(F)F (configuration not stated),> 100 µM
15,CC12c3c4ccc(C=O)c3Oc3ccc(C=O)c(c31)Oc1ccc(C=O)c(c12)O4,> 25 µM
